Measured values published in ChEMBL document CHEMBL1201862, “PubChem BioAssay data set” (2004).
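Following 48 hours of exposure in 96-well plates, responses at five concentrations were used to interpolate endpoints linearly. At the GI50, growth is halved.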 Activity calls are given as the source filed them. Rule as the data show it: active = GI50 up to about 1.1 µM and inactive = higher.

Experiments:
Assay in all cases: inhibition of tumour cell growth, NCI panel, 48 h
MDA-N = test system: MDA-N
M14 = test system: M14
TK-10 = test system: TK-10
PC-3 = test system: PC-3
T47D = test system: T47D
XF498 = test system: XF498
LXFL 529 = test system: LXFL 529
RXF 631 = test system: RXF 631
786-0 = test system: 786-0

Measured: GI50

CCOC(=O)C(NC(C)=O)(Nc1ccc(F)cc1)C(F)(F)F (centres undefined)
inactive: MDA-N 4.75 µM | M14 20.2 µM | TK-10 > 100 µM | PC-3 > 100 µM | T47D 23.2 µM

C=CCn1c2ccccc2c2c(C)c3cnccc3c(C)c21
inactive: XF498 12.4 µM

COC(=O)C1=C(O)C(C(=O)OC)[C@@]2(O)[C@@H](C(=O)OC)CC[C@@H]1[C@@H]2C(=O)OC (some centres undefined)
inactive: M14 22.6 µM | TK-10 23 µM | T47D 54.2 µM

COc1cc(/C=C(/C#N)C(N)=O)ccc1O
inactive: XF498 > 100 µM

Cn1cnc(/C=C/C#N)c1
inactive: MDA-N > 100 µM | M14 > 100 µM | TK-10 > 100 µM | PC-3 > 100 µM

O=C1C(Cl)N(c2ccc(Cl)cc2Cl)C1c1c[nH]c2ccccc12 (centres undefined)
inactive: LXFL 529 > 100 µM | M14 > 100 µM | TK-10 > 100 µM | XF498 > 100 µM

COc1nc(N)c(C(=O)CCl)c(=O)n1C
inactive: LXFL 529 13.6 µM | RXF 631 15.3 µM | M14 > 10 µM | TK-10 14.7 µM | XF498 16.4 µM

CC1(C23CC4CC(CC(C4)C2)C3)n2c(=O)n(-c3ccccc3)c(=O)n2C1(C)C12CC3CC(CC(C3)C1)C2 (centres undefined)
inactive: MDA-N > 100 µM | M14 > 100 µM | TK-10 > 100 µM | PC-3 > 100 µM | T47D > 100 µM

COc1ccc(C(=O)c2c(-c3ccccc3NC(=O)C(F)(F)F)[nH]c3ccccc23)cc1
inactive: MDA-N 15.3 µM | M14 14.3 µM | TK-10 11.6 µM | PC-3 5.92 µM | T47D 1.47 µM

CC1=C2C(O)C(C(C)C(=O)NCC(C)C)CCC2(C)C=CC1=O (centres undefined)
inactive: XF498 > 100 µM

COc1cccc(NC(=O)N/C(=C/c2ccc(N(CCC#N)CCC#N)cc2)NC(=O)c2cc([N+](=O)[O-])ccc2Cl)c1
inactive: LXFL 529 > 100 µM | RXF 631 > 100 µM | TK-10 > 100 µM | XF498 > 100 µM

CCOC(=O)/C(=N/Nc1ccc(C)cc1)N1C(=S)N(C)N=C(C)C=C1S
inactive: M14 > 100 µM | TK-10 45.7 µM | T47D > 100 µM

COc1cc2c(cc1OC)C1Cc3sccc3CN1CC2 (centres undefined)
inactive: LXFL 529 > 100 µM | RXF 631 > 100 µM | M14 72.4 µM | TK-10 > 100 µM | XF498 > 100 µM

O=C1c2ccccc2OCC1/C=N/O (centres undefined)
inactive: XF498 > 100 µM

COc1cccc(C2c3cc4c(cc3OC(N3CCOCC3)C2C)OCO4)c1OC (centres undefined)
inactive: MDA-N 13.7 µM | M14 9.1 µM | TK-10 15.5 µM | PC-3 11.3 µM | 786-0 5.22 µM | T47D 3.2 µM

COc1cc(-c2ccc(/N=N/c3ccc4c(S(=O)(=O)O)cc(S(=O)(=O)O)c(N)c4c3O)c(OC)c2)ccc1/N=N/c1ccc2c(S(=O)(=O)O)cc(S(=O)(=O)O)c(N)c2c1O
inactive: XF498 36.1 µM
